Measurements as given in BindingDB's records for doi:10.1016/S0968-0896(02)00561-8 (Purdue University, 2003).
Values joined by “and” are separate entries in the source; they are usually repeats but may differ in a detail not shown here. Equal entries are not always repeated. Structures can show the parent of a compound that is named as a salt.

Tests used:
D(3) dopamine receptor = D(3) dopamine receptor (Rattus norvegicus, UniProt P19020)
D(4) dopamine receptor = biological target: T1, D(4) dopamine receptor (Rattus norvegicus, UniProt P30729)
T1 sequence (P30729 whole entry): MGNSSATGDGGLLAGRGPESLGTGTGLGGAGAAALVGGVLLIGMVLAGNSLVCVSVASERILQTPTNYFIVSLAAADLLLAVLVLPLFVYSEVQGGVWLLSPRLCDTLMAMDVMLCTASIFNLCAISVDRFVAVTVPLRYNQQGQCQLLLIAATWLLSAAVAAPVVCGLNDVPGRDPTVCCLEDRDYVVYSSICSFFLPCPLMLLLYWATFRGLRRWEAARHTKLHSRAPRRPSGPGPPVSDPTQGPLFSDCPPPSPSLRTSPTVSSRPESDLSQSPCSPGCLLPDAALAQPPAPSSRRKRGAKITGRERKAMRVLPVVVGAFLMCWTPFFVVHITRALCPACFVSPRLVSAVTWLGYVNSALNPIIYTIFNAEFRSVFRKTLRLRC

D(2) dopamine receptor = D(2) dopamine receptor (Rattus norvegicus, UniProt P61169)
Chain of D(2) dopamine receptor (P61169 whole entry): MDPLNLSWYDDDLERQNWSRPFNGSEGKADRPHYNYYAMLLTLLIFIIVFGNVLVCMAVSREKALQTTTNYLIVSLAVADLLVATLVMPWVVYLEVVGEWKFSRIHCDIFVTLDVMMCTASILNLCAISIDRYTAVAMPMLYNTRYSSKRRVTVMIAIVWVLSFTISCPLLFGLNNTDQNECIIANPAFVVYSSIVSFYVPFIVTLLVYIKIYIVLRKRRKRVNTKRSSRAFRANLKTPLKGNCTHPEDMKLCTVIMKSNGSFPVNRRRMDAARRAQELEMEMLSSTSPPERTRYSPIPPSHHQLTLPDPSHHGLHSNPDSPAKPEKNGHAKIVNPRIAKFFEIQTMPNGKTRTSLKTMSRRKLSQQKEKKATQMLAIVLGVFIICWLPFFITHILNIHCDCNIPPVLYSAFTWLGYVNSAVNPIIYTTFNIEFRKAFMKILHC

D(1A) dopamine receptor = D(1A) dopamine receptor (Rattus norvegicus, UniProt P18901)
Chain of D(1A) dopamine receptor (P18901 whole entry): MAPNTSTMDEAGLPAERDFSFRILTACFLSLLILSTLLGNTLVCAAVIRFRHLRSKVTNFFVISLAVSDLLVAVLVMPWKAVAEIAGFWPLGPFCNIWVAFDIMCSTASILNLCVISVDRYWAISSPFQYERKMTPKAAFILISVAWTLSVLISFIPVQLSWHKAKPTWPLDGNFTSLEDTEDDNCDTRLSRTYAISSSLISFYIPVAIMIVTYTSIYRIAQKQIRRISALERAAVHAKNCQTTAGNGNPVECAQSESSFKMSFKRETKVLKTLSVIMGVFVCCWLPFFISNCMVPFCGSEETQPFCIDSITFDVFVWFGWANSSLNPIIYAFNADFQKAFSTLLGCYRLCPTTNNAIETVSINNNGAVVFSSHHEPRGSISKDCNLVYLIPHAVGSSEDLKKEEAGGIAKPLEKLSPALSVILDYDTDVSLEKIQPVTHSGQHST

Chain of D(3) dopamine receptor (P19020 whole entry): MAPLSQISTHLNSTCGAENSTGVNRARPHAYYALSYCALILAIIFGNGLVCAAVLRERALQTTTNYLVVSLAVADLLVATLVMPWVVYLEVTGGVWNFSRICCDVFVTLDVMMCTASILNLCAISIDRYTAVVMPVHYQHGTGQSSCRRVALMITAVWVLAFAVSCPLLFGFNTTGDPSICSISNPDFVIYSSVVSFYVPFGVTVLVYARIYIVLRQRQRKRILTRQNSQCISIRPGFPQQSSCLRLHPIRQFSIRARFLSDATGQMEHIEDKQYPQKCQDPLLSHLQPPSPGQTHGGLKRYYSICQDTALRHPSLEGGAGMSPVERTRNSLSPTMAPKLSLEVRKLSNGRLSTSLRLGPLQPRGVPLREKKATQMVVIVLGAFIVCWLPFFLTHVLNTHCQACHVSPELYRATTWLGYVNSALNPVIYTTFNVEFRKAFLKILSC

SMILES	Ki (D(3) dopamine receptor)	Ki (D(4) dopamine receptor)	Ki (D(2) dopamine receptor)	Ki (D(1A) dopamine receptor)
C=CCN1Cc2cccc3c2[C@@H](C1)c1ccc(O)c(O)c1C3 (racemic) [Dinapsoline,(+/-)-N-allyl]	14 nM	48 nM	–	–
CCCN1Cc2cccc3c2[C@@H](C1)c1ccc(O)c(O)c1C3 (racemic) [(+/-)-2-propyldinapsoline hydrobromide]	2.8 nM	17 nM	39 nM and 60 nM	170 nM and 1200 nM and 660 nM
C=CCN1Cc2c(C)ccc3c2[C@@H](C1)c1ccc(O)c(O)c1C3 (racemic) [Dinapsoline,(+/-)-4-Methyl-N-allyl]	4.3 nM	63 nM	36 nM and 49 nM	56 nM and 140 nM
Cc1cccc2c1CN[C@H]1CCc3cc(O)c(O)cc3[C@H]21 [Dihydrexidine, 4-methyl]	85 nM	–	674 nM	6.6 nM and 18 nM
Cc1ccc2c3c1CNC[C@H]3c1ccc(O)c(O)c1C2 (racemic) [Dinapsoline,(+/-)-4-Methyl]	18 nM	83 nM	36 nM and 19 nM	–
Oc1ccc2c(c1O)Cc1cccc3c1[C@H]2CNC3 [Dinapsoline, (R)(+)]	–	60 nM	–	–
CCCN1Cc2c(C)ccc3c2[C@@H](C1)c1ccc(O)c(O)c1C3 (racemic) [Dinapsoline,(+/-)-4-Methyl-N-propyl]	2.5 nM	28 nM	23 nM and 21 nM	200 nM and 1400 nM
Cc1ccc2c3c1Cc1c(ccc(O)c1O)[C@@H]3CNC2 (racemic) [Dinapsoline,(+/-)-6-Methyl]	28 nM	220 nM	190 nM and 57 nM	–
CCCN1Cc2ccccc2[C@H]2c3cc(O)c(O)cc3CC[C@@H]21 [Dihydrexidine, N-propyl]	8.7 nM	–	–	180 nM
CCCN1Cc2c(C)cccc2[C@H]2c3cc(O)c(O)cc3CC[C@@H]21 [Dihydrexidine, 4-methyl-N-propyl]	2.08 nM	–	–	23.4 nM
